The text below walks through data of ChEMBL document CHEMBL1133315, “Human beta3-adrenergic receptor agonists containing 1,2,3-triazole-substituted benzenesulfonamides” (Bioorg Med Chem Lett, 2000).

Data set [1] concerns the target T1, Beta-3 adrenergic receptor (Homo sapiens, UniProt P13945). The experiment in a line: Tested in vitro for its ability to stimulate increase in cAMP in CHO cells expressing the cloned human beta-3 adrenergic receptor. The format is functional, cell-based.
Target sequence in this assay (P13945 whole entry): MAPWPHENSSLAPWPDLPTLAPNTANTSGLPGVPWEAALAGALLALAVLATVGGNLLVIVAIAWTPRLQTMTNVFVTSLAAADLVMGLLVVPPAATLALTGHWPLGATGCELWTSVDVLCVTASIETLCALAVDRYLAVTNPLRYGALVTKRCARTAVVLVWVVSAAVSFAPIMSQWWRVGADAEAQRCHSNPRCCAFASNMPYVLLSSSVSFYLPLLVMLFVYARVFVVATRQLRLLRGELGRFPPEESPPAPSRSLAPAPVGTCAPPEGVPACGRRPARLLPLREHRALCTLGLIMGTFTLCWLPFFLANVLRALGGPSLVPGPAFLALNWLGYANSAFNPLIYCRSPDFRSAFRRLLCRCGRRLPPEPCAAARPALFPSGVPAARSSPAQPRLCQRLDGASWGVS
The target of data set [2] is Beta-1 adrenergic receptor (Homo sapiens, UniProt P08588). The experiment in a line: Binding affinity for cloned human Beta-1 adrenergic receptor expressed in CHO cells, tested in the presence of I-iodocyanopindolol. It is filed as cell-based.
Chain of Beta-1 adrenergic receptor (P08588 whole entry): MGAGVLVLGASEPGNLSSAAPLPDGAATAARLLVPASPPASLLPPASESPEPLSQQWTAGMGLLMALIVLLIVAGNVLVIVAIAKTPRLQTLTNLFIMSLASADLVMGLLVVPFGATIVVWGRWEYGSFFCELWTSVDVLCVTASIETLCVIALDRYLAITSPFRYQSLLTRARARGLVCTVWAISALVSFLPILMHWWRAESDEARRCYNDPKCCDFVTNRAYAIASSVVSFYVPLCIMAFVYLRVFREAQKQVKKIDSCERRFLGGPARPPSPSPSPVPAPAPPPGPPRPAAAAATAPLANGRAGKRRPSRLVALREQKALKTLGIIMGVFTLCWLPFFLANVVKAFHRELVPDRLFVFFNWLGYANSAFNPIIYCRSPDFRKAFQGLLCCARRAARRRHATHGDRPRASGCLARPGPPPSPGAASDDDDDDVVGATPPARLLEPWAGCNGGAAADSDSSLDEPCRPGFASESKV
Data set [3] deals with T1, Beta-3 adrenergic receptor. The experiment in a line: Tested for Beta3 adrenergic receptor agonist activity by its ability to stimulate adenylyl cyclase activation as % of the maximal stimulation with isoproterenol. It is filed as functional.
Target sequence in this assay (P13945 whole entry, looked up): as the sequence (P13945 whole entry) above
The target of data set [4] is Beta-2 adrenergic receptor (Homo sapiens, UniProt P07550). The experiment in a line: Binding affinity for clone human Beta-2 adrenergic receptor from CHO cell membranes in the presence of I-iodocyanopindolol.
Chain of Beta-2 adrenergic receptor (P07550 whole entry): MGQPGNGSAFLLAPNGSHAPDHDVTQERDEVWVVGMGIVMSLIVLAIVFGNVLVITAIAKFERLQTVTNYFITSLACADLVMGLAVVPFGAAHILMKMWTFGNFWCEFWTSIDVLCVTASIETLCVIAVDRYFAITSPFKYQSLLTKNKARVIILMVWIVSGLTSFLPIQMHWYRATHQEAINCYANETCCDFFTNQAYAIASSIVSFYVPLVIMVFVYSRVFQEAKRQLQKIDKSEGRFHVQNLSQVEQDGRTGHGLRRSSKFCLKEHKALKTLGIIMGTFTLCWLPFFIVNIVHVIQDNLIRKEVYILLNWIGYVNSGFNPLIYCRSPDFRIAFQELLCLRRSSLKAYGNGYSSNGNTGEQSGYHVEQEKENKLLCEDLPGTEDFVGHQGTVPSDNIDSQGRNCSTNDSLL
Data set [5] can be described thus: Oral bioavailability in dog. To be noted: in vivo. The format is ADME, organism-based, Canis lupus familiaris.
The subject of data set [6] is Monkey. Kind of data set: Effective dose that produced hyperglycerolemia in anesthetized rhesus monkeys. It is filed as functional. To be noted: Cercopithecidae, in Macaca mulatta.
A short description of data set [7]: The compound was tested for half life in dog. The format is ADME, organism-based, Canis lupus familiaris. The settings on record: in vivo.
Data set [8] relates to Monkey. The experiment in a line: Compound was tested for separation between lipolytic potency and tachycardia, as heart rate, effect was determined at highest dose of 10 mg/kg in rhesus monkeys. It is filed as functional, Cercopithecidae.
A short description of data set [9]: The half life was determined. To be noted: dog, in vivo. The format is ADME, organism-based, Canis lupus familiaris.

As for `O=S(=O)(Nc1ccc(CCNC[C@H](O)c2cccnc2)cc1)c1ccc(-n2ncc(Cc3ccc(OC(F)(F)F)cc3)n2)cc1`, it took 4.1 nM to reach a half-maximal effect in data set [1] (EC50). The IC50 (commonly the concentration needed to halve the response being measured) in [2] was determined as 2600 nM; in data set [4] it was 860 nM. This molecule also came in with an Activation in [3] of 91%.

Regarding `O=S(=O)(Nc1ccc(CCNC[C@H](O)c2cccnc2)cc1)c1ccc(-n2ncc(Cc3cccc(F)c3)n2)cc1`, the midpoint of the response in data set [1], the EC50, lay at 6.4 nM. In addition, the values for the IC50 in [2] and in data set [4] were 3000 nM and 380 nM, respectively. This molecule registered an Activation in data set [3] of 87%.

In the case of `O=S(=O)(Nc1ccc(CCNC[C@H](O)c2cccnc2)cc1)c1ccc(-n2ncc(-c3ccc(F)c(F)c3)n2)cc1`, it took 14 nM to reach a half-maximal effect in [1] (EC50). For the same molecule, the IC50 turned out to be 2600 nM in [2] and 1300 nM in data set [4]. Besides, the Activation in data set [3] worked out at 82%.

With `O=S(=O)(Nc1ccc(CCNC[C@H](O)c2cccnc2)cc1)c1ccc(-n2ncc(-c3cccc(F)c3)n2)cc1`, the EC50 (as a rule, the concentration that produces a half-maximal response) in [1] amounted to 52 nM. Further, the IC50 in data set [2] worked out at 8700 nM; in data set [4], 8800 nM. The molecule further registered an Activation in data set [3] of 89%.

`O=S(=O)(Nc1ccc(CCNC[C@H](O)c2cccnc2)cc1)c1ccc(-n2ncc(COc3ccc(C(F)(F)F)cc3)n2)cc1` came in with an EC50 in data set [1] of 11 nM. The results for the IC50 in [2] and in data set [4] were 920 nM and 730 nM, respectively. The same molecule displayed an Activation in data set [3] of 72%.

For `O=S(=O)(Nc1ccc(CCNC[C@H](O)c2cccnc2)cc1)c1ccc(-n2ncc(C(O)c3ccc(F)cc3)n2)cc1` (stereo partly specified), in data set [1], the EC50 amounted to 3.3 nM.

In turn, `O=S(=O)(Nc1ccc(CCNC[C@H](O)c2cccnc2)cc1)c1ccc(-n2ncc(Cc3c(F)cccc3F)n2)cc1` showed an EC50 in [1] of 24 nM. In addition, the IC50 in data set [2] was found to be 28000 nM; in data set [4] it was 5000 nM. This molecule also had an Activation in [3] of 84%.

Take `COc1ccc(-c2cnn(-c3ccc(S(=O)(=O)Nc4ccc(CCNC[C@H](O)c5cccnc5)cc4)cc3)n2)cc1F`: in data set [1], the EC50 amounted to 22 nM. Also, the IC50 was 5600 nM in data set [2] and 2500 nM in data set [4]. This molecule gave an Activation in [3] of 80%.

`O=S(=O)(Nc1ccc(CCNC[C@H](O)c2cccnc2)cc1)c1ccc(-n2ncc(Cc3c(F)cc(F)cc3F)n2)cc1` yielded an EC50 in data set [1] of 48 nM. Besides, the IC50 in data set [2] is 10000 nM; in data set [4] it was 8800 nM. In data set [3], this molecule displayed an Activation of 83%.

In turn, `CCCCCCn1ccn(-c2ccc(S(=O)(=O)Nc3ccc(CCNC[C@H](O)c4cccnc4)cc3)cc2)c1=O` [L-764646] returned a bioavailability in data set [5] of 7%.

The molecule `O=S(=O)(Nc1ccc(CCNC[C@H](O)c2cccnc2)cc1)c1ccc(-n2ncc(COc3ccc(F)c(F)c3)n2)cc1` had an EC50 in [1] of 10 nM. The IC50 in data set [2] was found to be 930 nM; in data set [4], 690 nM. In addition, the Activation in data set [3] stood at 63%.

For `CCCCCCNC(=O)Nc1ccc(S(=O)(=O)Nc2ccc(CCNC[C@H](O)c3cccnc3)cc2)cc1`, the bioavailability in [5] was less than 1%.

`O=S(=O)(Nc1ccc(CCNC[C@H](O)c2cccnc2)cc1)c1ccc(-n2ncc(Cc3ccc(C(F)(F)F)cc3)n2)cc1` yielded an EC50 in [1] of 3.1 nM. In addition, the ED50 (as a rule, the midpoint of the dose-response relation) in the data set on Monkey [6] was determined as 0.36 mg/kg. Besides, the IC50 came out at 20000 nM in data set [2] and 4700 nM in data set [4]. This molecule registered an Activation in data set [3] of 85%. The bioavailability in data set [5] (read-out: Activity) worked out at 25%. For the same molecule, in data set [7], the half-life (as a rule, how long it takes for the measured level to halve) is 6 h. In the data set on Monkey [8], this molecule gave a Heart rate of less than 5%.

`O=S(=O)(Nc1ccc(CCNC[C@H](O)c2cccnc2)cc1)c1ccc(-n2ncc(COc3ccc(OC(F)(F)F)cc3)n2)cc1` displayed a concentration for a half-maximal effect (EC50) in data set [1] of 14 nM. For the same molecule, the IC50 came to 6200 nM in data set [2] and 620 nM in data set [4]. For the same molecule, the Activation in data set [3] was found to be 75%.

In [1], `O=S(=O)(Nc1ccc(CCNC[C@H](O)c2cccnc2)cc1)c1ccc(-n2ncc(-c3ccc(OC(F)(F)F)cc3)n2)cc1` returned an EC50 of 18 nM. The figures for the IC50 in data set [2] and in data set [4] were 1300 nM and 1600 nM, respectively. The molecule further registered an Activation in data set [3] of 84%.

Consider `O=S(=O)(Nc1ccc(CCNC[C@H](O)c2cccnc2)cc1)c1ccc(-n2ncc(Cc3ccc(F)cc3)n2)cc1`, for which a half-maximal effect in data set [1] (EC50) was put at 14 nM. Further, the IC50 in [2] was found to be 2500 nM; in data set [4] it was 780 nM. In addition, the Activation in [3] is 75%.

With `O=S(=O)(Nc1ccc(CCNC[C@H](O)c2cccnc2)cc1)c1ccc(-n2ncc(-c3ccc(F)cc3)n2)cc1`, the EC50 in data set [1] was determined as 24 nM. In addition, the IC50 in data set [2] was 40000 nM; in data set [4], 9300 nM. For the same molecule, the Activation in [3] was 91%.

On to `O=S(=O)(Nc1ccc(CCNC[C@H](O)c2cccnc2)cc1)c1ccc(-n2ncc(-c3ccc(C(F)(F)F)cc3)n2)cc1`, for which the EC50 in [1] was 14 nM. The IC50 in data set [2] and in [4] was 21000 nM throughout. The same molecule displayed an Activation in [3] of 90%. In addition, the bioavailability in data set [5] is 18%. Moreover, the half-life in data set [9] is 15 h.

Consider `O=S(=O)(Nc1ccc(CCNC[C@H](O)c2cccnc2)cc1)c1ccc(-n2ncc(Cc3ccc(F)c(F)c3)n2)cc1`, for which the EC50 in data set [1] was 7.2 nM. The values for the half-maximal inhibitory concentration (IC50) in data set [2] and in data set [4] were 2000 nM and 1000 nM, respectively. In data set [3], the Activation stood at 86%. In addition, the bioavailability in [5] (read-out: Activity) was determined as 38%. In data set [9], this molecule gave a half-life of 4 h.

Molecule `O=C(c1ccc(F)cc1)c1cnn(-c2ccc(S(=O)(=O)Nc3ccc(CCNC[C@H](O)c4cccnc4)cc3)cc2)n1` had an EC50 in data set [1] of 6.4 nM.
